Reference: patent US20250345295A1, “LMK235 COMPOSITIONS AND METHODS” (UNM Rainforest Innovations, priority 2024, published 2025)
Several values for one entry are separate records, joined by “and”; a condition that tells them apart may be missing. Equal values may be shown once.

Tested on: differentially expressed genes in TG
Test: RNAseq gene expression profiling of TG
Type: in vivo, mouse
Settings: TG RNAseq
Experimental: Gene expression profiling was performed on TG from mice with/without nerve injury during the acute phase (three weeks post injury) in TIC mice and after transition to chronic pain (10 weeks post injury) in FRICT-ION mice by Quick Biology Inc. (Monrovia, CA).
Total RNA from ipsilateral TG was isolated using the Rneasy Mini Kit (Qiagen, Valencia, CA). Gene expression profiling and analysis with RNA was done by Quick Biology Inc. (Monrovia, CA). RNAseq library preparation was performed by Quick Biology Inc. (Monrovia, CA), sequencing was performed using an Illumina HiSeq 4000 at 40 million reads per sample. The reads were first mapped to the latest UCSC transcript set using Bowtie2 version 2.1.0 and the gene expression level was estimated using RSEM v1.2.15. Differentially expressed genes were identified using the edgeR program. Genes showing altered expression with p<0.05 were considered differentially expressed.

[1] = LMK235-treated vs untreated FRICT-ION mice
[2] = male FRICT-ION mice treated with LMK235 vs Vehicle, week 10

Cc1cc(C)cc(C(=O)NOCCCCCC(=O)NO)c1 [LMK235, N-[[6-(Hydroxyamino)-6-oxohexyl]oxy]-3,5-dimethyl-benzamide]
Nav3 downregulated, fold [1]: 1.19 fold
Net1 upregulated, fold [1]: 1.12 fold
Neurod4 upregulated, fold [1]: 1.57 fold
Nf2 upregulated, fold [1]: 1.04 fold
Ngef downregulated, fold [1]: 1.34 fold
Nkain2 downregulated, fold [1]: 1.14 fold
Nova1 upregulated, fold [1]: 1.04 fold
Nras downregulated, fold [1]: 1.03 fold
Nrg2 upregulated, fold [1]: 1.10 fold
Nrg3 downregulated, fold [1]: 1.00 fold
Ntrk1 upregulated, fold [1]: 1.80 fold
Nts downregulated, fold [1]: 1.74 fold
Scn2a Scn2a1 downregulated, fold [1]: 1.04 fold
Scn3a downregulated, fold [1]: 1.01 fold
Scn7a downregulated, fold [1]: 1.07 fold
Scn8a upregulated, fold [1]: 1.05 fold
Scn9a upregulated, fold [1]: 1.29 fold
Trpc6 upregulated, fold [1]: 1.08 fold
Trpm3 upregulated, fold [1]: 1.19 fold
Trpm4 upregulated, fold [1]: 1.05 fold
Trpv6 downregulated, fold [1]: 1.19 fold
Fold change 1700047I17Rik2 [2]: 3.82 fold
Fold change 8430408G22Rik [2]: 2.46 fold
Fold change Acta2 [2]: 2.01 fold
Fold change Amy2a5 [2]: 2.03 fold
Fold change Armc3 [2]: 2.04 fold
Fold change Asb4 [2]: 1.53 fold
Fold change C1ql2 [2]: 2.34 fold
Fold change C1ql4 [2]: 4.76 fold
Fold change Calcb [2]: 2.17 fold
Fold change Ccdc153 [2]: 2.32 fold
Fold change Cckbr [2]: −2.32 fold
Fold change Crhbp [2]: 2.79 fold
Fold change Cutal [2]: 2.10 fold
Fold change Cyp26b1 [2]: 2.99 fold
Fold change Cytl1 [2]: 2.14 fold
Fold change Dmrt3 [2]: 2.46 fold
Fold change Eif3j2 [2]: 3.88 fold
Fold change Evi2a-evi2b [2]: 136.10 fold
Fold change Fev [2]: 2.35 fold
Fold change Gata3 [2]: 3.74 fold
Fold change Gh [2]: −25.22 fold
Fold change Gm833 [2]: 2.45 fold
Fold change Gm8221 [2]: 241.23 fold
Fold change Gm13306 [2]: 48.23 fold
Fold change Gpx2 [2]: 3.17 fold
Fold change Gucy2f [2]: 2.13 fold
Fold change H19 [2]: 2.05 fold
Fold change Hdac5 [2]: −2.03 fold
Fold change Hist2h3c2 [2]: 128.58 fold
Fold change Hoxb9 [2]: −16.50 fold and −16.5 fold
Fold change Hoxc8 [2]: −8.22 fold
Fold change Hoxd8 [2]: −4.14 fold
Fold change Irx4 [2]: 2.51 fold
Fold change Isl1 [2]: 2.30 fold
Fold change Kcnmb1 [2]: 2.15 fold
Fold change Mgl2 [2]: 2.39 fold
Fold change Myom1 [2]: 2.01 fold
Fold change Nkx6-3 [2]: 2.10 fold
Fold change Onecut3 [2]: 2.22 fold
Fold change P2rx2 [2]: −1.84 fold
Fold change P2rx4 [2]: −2.08 fold
Fold change Pappa2 [2]: 2.16 fold
Fold change Pde4c [2]: 2.45 fold
Fold change Ppp1r1c [2]: 2.51 fold
Fold change Sec16b [2]: 1.98 fold
Fold change Serpina3h [2]: 2.51 fold
Fold change Shox2 [2]: 2.49 fold
Fold change Slc6a4 [2]: 4.38 fold
Fold change Slc18a2 [2]: 2.01 fold
Fold change Slfn4 [2]: −2.32 fold
Fold change Sp8 [2]: 2.42 fold
Fold change Tmprss11d [2]: 2.98 fold
Fold change Tph2 [2]: 4.18 fold
Fold change Tyrp1 [2]: 3.03 fold
Fold change Vmn2r84 [2]: 2.71 fold
Fold change lc6a2 [2]: 2.91 fold
Gh downregulated, fold [2]: 25.22 fold
Hoxb9 downregulated, fold [2]: 16.50 fold
Hoxc8 downregulated, fold [2]: 8.22 fold
Hoxd8 downregulated, fold [2]: 4.14 fold
P2rx4 downregulated, fold [2]: 2.08 fold
Slfn4 downregulated, fold [2]: 2.32 fold
